Reference: patent publication US20090047408A1, “Method for Improving Absorbability of Epigallocatechin Gallate, Foods, Drinks and Food/Drink Materials Using the Same and Method for Producing the Same” (ITO EN, LTD, priority 2005, published 2009)

Key:
Format in all cases: in vivo
[1] = Absorbability of EGCg in humans: blood EGCg level after drinking drinks A to C (chemiluminescence-HPLC)
Description: Caffeine formulation (manufactured by […] Pharmaceutical Co., Ltd.), EGCg formulation (content of EGCg: 90% or more, trade name: Teavigo, manufactured by DSM Nutritional Products), ascorbic acid and citric acid were added in the amounts shown in Table 2, respectively, to 190 ml of water, which were dissolved. Thereafter, each of the resulting mixtures was poured into a can, respectively, which was sealed and sterilized by heat and then drinks A to C were prepared. […] Each of subjects drank one of the drinks […] minutes after the drinking was measured by chemiluminescence-HPLC. The measurement was subjected in three subjects for each drink. The relationship between the C/E ratio and the blood EGCg level is graphically represented in accordance with Table 2, which is shown as FIG. 2. According to Table 2, the blood EGCg level of subjects is the highest in the case that the drink B having the C/E ratio of 0.4 has been taken by the subjects, and the blood EGCg level falls in either case where the C/E ratio is lower or higher than that.

[2] = Changes in blood concentration over time of orally ingested EGCg and caffeine in humans; settings: oral ingestion
[3] = Absorbability of EGCg in rats: blood EGCg level after oral administration of caffeine and EGCg solutions (chemiluminescence-HPLC); settings: average of six rats
Description: Teavigo, manufactured by DSM Nutritional Products) in 1 ml of water were prepared. In accordance with Experimental plots 1 to 7 shown in Table 1, the solution of caffeine and the solution of EGCg were orally administered to rats. After 60 minutes from the administration, the blood EGCG level in rats was measured by chemiluminescence-HPLC. The measurement was subjected by using six rats for each Experimental plot. The relationship between the C/E ratio and the blood EGCg level is graphically represented in accordance with Table 1, which is shown as FIG. 1. […] When the C/E ratio is lower or higher than that, the blood EGCg level is reduced.

Compound | Absorbability of EGCg relative to EGCg alone ([1]; C/E ratio 0.18 to 0.70) | Absorbability of EGCg relative to normal green tea infusion ([1]; C/E ratio 0.18 to 0.70) | Absorbability of EGCg relative to EGCg alone ([1]; C/E ratio 0.20 to 0.60) | Absorbability of EGCg relative to normal green tea infusion ([1]; C/E ratio 0.20 to 0.60) | Increase of absorbability of EGCg relative to normal tea ([1]; optimized C/E ratio, maximum) | Time at which blood concentration reaches a maximum value [2] | Blood EGCg level ([3]; Exp. plot 1: rats, caffeine 0 mg + EGCg 30 mg, C/E ratio 0, 60 minutes after administration) | Blood EGCg level ([3]; Exp. plot 2: rats, caffeine 3 mg + EGCg 30 mg, C/E ratio 0.1, 60 minutes after administration) | Blood EGCg level ([3]; Exp. plot 3: rats, caffeine 6 mg + EGCg 30 mg, C/E ratio 0.2, 60 minutes after administration) | Blood EGCg level ([3]; Exp. plot 4: rats, caffeine 15 mg + EGCg 30 mg, C/E ratio 0.5, 60 minutes after administration) | Blood EGCg level ([3]; Exp. plot 5: rats, caffeine 30 mg + EGCg 30 mg, C/E ratio 1.0, 60 minutes after administration) | Blood EGCg level ([3]; Exp. plot 6: rats, caffeine 45 mg + EGCg 30 mg, C/E ratio 1.5, 60 minutes after administration) | Blood EGCg level ([3]; Exp. plot 7: rats, caffeine 65 mg + EGCg 30 mg, C/E ratio 2.2, 60 minutes after administration)
O=C(O[C@@H]1Cc2c(O)cc(O)cc2O[C@@H]1c1cc(O)c(O)c(O)c1)c1cc(O)c(O)c(O)c1 [EGCg, epigallocatechin gallate] | ≥ 1.7 times | ≥ 1.1 times | ≥ 1.75 times | ≥ 1.15 times | up to 1.2 times | about 1.5 hours | 229 pmol/mL | 243 pmol/mL | 270 pmol/mL | 221 pmol/mL | 153 pmol/mL | 90 pmol/mL | 94 pmol/mL
Cn1c(=O)c2c(ncn2C)n(C)c1=O [caffeine, reference compound] |  |  |  |  |  | about 1.5 hours |  |  |  |  |  |  | 
